Source: US20260347310A1, “PHENALKYLAMINES AND METHODS OF MAKING AND USING THE SAME” (GILGAMESH PHARMACEUTICALS, INC., priority 2022, published 2026)
Read-outs that look alike come from different tables or passages of the source.

Experiments:
[1] = Pharmacokinetics in plasma of rats after oral and intravenous dosing; oral bioavailability; assay type: in vivo, Sprague Dawley rats; details: rat plasma, racemate, 10% captisol
Method: The pharmacokinetics of disclosed compounds were determined in the plasma of rats after oral and intravenous dosing, with the results presented in Table 13.
Animals. Male Sprague Dawley rats were used in these studies. Animals were randomly assigned to treatment groups and were fasted overnight before oral dosing.
Drugs. The test compound was dissolved in 10% captisol (1) or 10% DMSO and 90% normal saline (2a) and administered intravenously (iv) at 2 mg/kg (1) or 1 mg/kg (2a) or orally (po) at 10 mg/kg (1) or 1 mg/kg (2a), calculated based on freebase, and at a volume of 10 mL/kg body weight for oral administration and 5 mL/kg for IV administration. The compounds were tested as the racemates.
Sample Collection and Bioanalysis. Blood samples were collected through the external jugular vein (via cannulation) at 0.083, 0.25, 0.5, 1, 2, 4, 8, and 24 h post-dose (total 8 time points/rat, 4 rats per administration route). At each time point, ~0.2 mL of blood was withdrawn and transferred into a pre-labeled 0.5-mL micro centrifuge tube containing 4 μL of 200 mM K2EDTA solution as anticoagulant and mixed gently by inverting the tube to facilitate mixing of anticoagulant with the blood. Blood samples were kept on ice until centrifugation. The collected blood samples were centrifuged at 4,000 rpm for 10 min at 4° C. Plasma samples were separated after centrifugation, transferred into pre-labeled tubes, and stored at −70° C. until bioanalysis. For bioanalysis, a 200-μL aliquot of internal standard prepared in acetonitrile (cetirizine, 50 ng/mL) was added (except for blank, where 200 μL of acetonitrile was added) to a 96-well Solvinert filter plate followed by 5 μL of a study plasma sample or spiked calibration standard. The filter plate was then centrifuged for 5 minutes at a speed of 2,500 rpm at 4° C. with a 96-well sample collection plate. Following centrifugation, collected samples were analyzed using a fit-for-purpose LC-MS/MS method, with authentic samples of the analyte used for calibration and identification.
Data Analysis. Pharmacokinetic parameters were estimated using the non-compartmental analysis tool of Phoenix® WinNonlin software (Ver 8.1). The drug concentrations of samples below the lower limit of quantitation (LLOQ) were designated as zero.

[2] = Metabolic stability in dog liver microsomes (DLM); assay type: in vitro ADME, Beagle dogs; details: for stability in DLM (in words): 1 μM, 0.50 mg protein/mL, 1 mM NADPH, 37 °C, 60 min; for half-life at 1 µM / microsomal CLint at 1 µM: dog liver microsomes 0.50 mg/mL, NADPH 1 mM, test compound 1 μM, 37° C., pH 7.4, 60 min
Method: (§1) Test Compounds. Compounds were prepared as described above.
(§2) DLM Stability. Pooled DLM from adult male Beagle dogs (Xenotech D1000) were used. Microsomal incubations were carried out in multi-well plates. Liver microsomal incubation medium consisted of PBS (100 mM, pH 7.4), MgCl2 (1 mM), and NADPH (1 mM), with 0.50 mg of liver microsomal protein per mL. Control incubations were performed by replacing the NADPH-cofactor system with PBS. Test compounds (1 μM, final solvent concentration 1.0%) were incubated with microsomes at 37° C. with constant shaking. Six time points over 60 minutes were analyzed, with 60 μL aliquots of the reaction mixture being drawn at each time point. The reaction aliquots were stopped by adding 180 μL of cold (4° C.) acetonitrile containing 200 ng/mL tolbutamide and 200 ng/mL labetalol as internal standards (IS), followed by shaking for 10 minutes, and then protein sedimentation by centrifugation at 4,000 rpm for 20 minutes at 4° C. Supernatant samples (80 μL) were diluted with water (240 μL) and analyzed for parent compound remaining using a fit-for-purpose liquid chromatography-tandem mass spectrometry (LC-MS/MS) method.
(§3) Data Analysis. The elimination constant (kel), half-life (t1/2), and intrinsic clearance (CLint) were determined in a plot of […] versus time, using linear regression analysis.

5-HT2A receptor [3] = target: T1, 5-HT2A receptor (Homo sapiens, UniProt P28223); test: Radioligand binding at 5-HT2A ([3H]ketanserin); set-up: expressed in transfected cells
T1 sequence (P28223 whole entry): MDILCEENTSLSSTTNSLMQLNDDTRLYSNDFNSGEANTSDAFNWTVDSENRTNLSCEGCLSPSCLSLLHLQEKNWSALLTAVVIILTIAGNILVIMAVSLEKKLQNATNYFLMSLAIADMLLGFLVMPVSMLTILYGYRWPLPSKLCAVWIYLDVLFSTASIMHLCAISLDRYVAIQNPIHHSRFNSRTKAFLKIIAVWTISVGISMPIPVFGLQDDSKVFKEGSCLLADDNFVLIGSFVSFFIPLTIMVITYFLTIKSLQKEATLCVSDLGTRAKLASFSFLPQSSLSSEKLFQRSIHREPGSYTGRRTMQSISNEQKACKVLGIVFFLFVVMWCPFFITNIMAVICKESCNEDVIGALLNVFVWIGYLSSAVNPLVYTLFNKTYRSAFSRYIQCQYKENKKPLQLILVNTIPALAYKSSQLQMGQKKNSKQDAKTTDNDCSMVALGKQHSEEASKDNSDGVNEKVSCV
Method: The binding affinities of disclosed compounds at the ketanserin binding site of the 5-HT2A receptor, the LSD binding site of the 5-HT2B receptor, and the mesulergine binding site of the 5-HT2C receptor were determined in radioligand binding experiments.
Method. The affinity of the test compounds for 5-HT2A, 5-HT2B, and 5-HT2C receptors was determined in radioligand binding experiments with [^3H]ketanserin, [^3H]LSD, and [^3H]mesulergine, respectively, by WuXi AppTec (Hong Kong) Limited, using methods adapted from the literature and under conditions described in Table 7.

[4] = Metabolic stability in human liver microsomes (HLM); assay type: in vitro ADME; details: for stability in HLM (in words): 1 μM, 0.50 mg protein/mL, 1 mM NADPH, 37 °C, 60 min; for half-life at 1 µM / microsomal CLint at 1 µM: human liver microsomes 0.50 mg/mL, NADPH 1 mM, test compound 1 μM, 37° C., pH 7.4, 60 min
Method: as §1
as §2, with “HLM” for “DLM”, “and female donors (Corning 452117)” for “Beagle dogs (Xenotech D1000)”
as §3

5-HT2A receptor [5] = target: T1, 5-HT2A receptor; test: FLIPR Ca2+ flux functional agonist assay at 5-HT2A; assay type: cell-based; set-up: expressed in transfected cells; host or cells: HEK293
Method: Disclosed compounds were tested for agonist activity at several serotonin receptor subtypes (5-HT2A, […], and 5-HT2C) using Ca^2+ flux functional assays, with the results summarized in Table 9.
as §1
Functional Assays at 5-HT2A and 5-HT2B. Agonist activity at 5-HT2A and 5-HT2B receptors was determined using a FLIPR Ca^2+ flux assay at WuXi AppTec (Hong Kong) Limited according to their standard protocols. Briefly, stably transfected cells expressing the receptor of interest (HEK293 for both 5-HT2A and 5-HT2B) were grown and plated in a 384-well plate and incubated at 37° C. and 5% CO2 overnight. A solution of 250 mM probenecid in 1 mL FLIPR assay buffer was prepared fresh. This was combined with a fluorescent dye (Fluo-4 Direct™) to make a final assay concentration of 2.5 mM. Compounds were diluted 1:3.16 for 10 points and 750 nL was added to a 384 well compound plate using ECHO along with 30 μL assay buffer. The fluorescent dye was then added to the assay plate along with assay buffer to a final volume of 40 μL. The cell plate was incubated for 50 min at 37° C. and 5% CO2 and placed into the FLIPR Tetra along with the compound plate. 10 μL of references and compounds were then transferred from the compound plate into the cell plate and the fluorescent signal was read.

Structure (SMILES)	bioavailability ([1]; IV 2 mg/kg and PO 10 mg/kg, read-out: F (absolute oral bioavailability))	C0 ([1]; IV 2 mg/kg)	AUC(0-t) ([1]; IV 2 mg/kg, read-out: AUC0-last (iv))	half-life ([1]; IV 2 mg/kg, read-out: t1/2 (iv) (converted))	Cmax ([1]; PO 10 mg/kg, fasted)	AUC(0-t) ([1]; PO 10 mg/kg, fasted, read-out: AUC0-last (po))	half-life ([1]; PO 10 mg/kg, fasted, read-out: t1/2 (po) (converted))	stability in DLM (in words) [2]	half-life at 1 µM [2]	microsomal CLint at 1 µM [2]	Ki (5-HT2A receptor [3])	binding at 5-HT2A receptors (in words) (5-HT2A receptor [3]; [3H]ketanserin)	stability in HLM (in words) [4]	half-life at 1 µM [4]	microsomal CLint at 1 µM [4]	EC50 (5-HT2A receptor [5])	agonist activity at 5-HT2A (in words) (5-HT2A receptor [5]; Ca2+ flux, potency or efficacy)	Emax (5-HT2A receptor [5]; HEK293, read-out: 5-HT2A % Act @ Max Dose)
CCCCCCc1cc(OC)c(CC(N)CC)cc1OC (racemic) [Compound 1, 1-(4-hexyl-2,5-dimethoxyphenyl)butan-2-amine]	8%	389 ng/mL	354 ng·h/mL	2.16 h	35.1 ng/mL	138 ng·h/mL	2.63 h	–	–	–	–	–	–	–	–	–	–	–
CCC(N)Cc1cc(OC)c(CCCCC(C)(F)F)cc1OC (stereo not drawn) [Compound 2b, 1-(4-(5,5-difluorohexyl)-2,5-dimethoxyphenyl)butan-2-amine]	–	–	–	–	–	–	–	significantly higher stability compared to 1R and 1S	1.19 h	19.4 µL/min/mg	9.52 nM	potent ligands for 5-HT2A	significantly higher stability compared to 1R and 1S	> 2.42 h	< 9.6 µL/min/mg	5060 nM	substantially less potent than 1R and 1S in the 5-HT2A FLIPR assay	71.3%
[2H]C([2H])([2H])CCCCCc1cc(OC)c(CC(N)CC)cc1OC (stereo not drawn) [Compound 3a, 1-(4-(hexyl-6,6,6-d3)-2,5-dimethoxyphenyl)butan-2-amine]	–	–	–	–	–	–	–	modestly greater stability than 1R or 1S	0.557 h	41.5 µL/min/mg	–	–	intermediate stability	0.517 h	44.7 µL/min/mg	–	–	–
